Test: Acid stability: acid-mediated hydrolytic decomposition, simulated stomach conditions, HPLC
Assay type: physicochemical
Conditions: for Compound left (%): 0.3 mg/mL in dilute hydrochloric acid at pH 1, 25°C
Experimental: Compounds were tested for their stability towards acid-mediated hydrolytic decomposition employing a test designed to simulate stomach conditions. Each compound was incubated at an initial concentration of 0.3 mg/mL in dilute hydrochloric acid at pH 1 for 24 hours at 25°C. HPLC was run immediately for t=0 and at intervals up to approximately 24 hours. The results for compounds of Example 2, part b, Example 9, and for comparative phosphoramidates of 2',3'-dideoxy-adenosine (Compound 1093) and 2',3'-didehydro-2',3'-dideoxy-adenosine (Compound 1001), described in W096/29336A, are given in the table below.

In the case of COC(=O)C(C)(C)NP(=O)(OC[C@@H]1C=C[C@H](n2cnc3c(NCC4CC4)nc(N)nc32)C1)Oc1ccccc1 (relative stereo) [Example 9], the “Compound left (%)” value (Time 0 hr) is reported as 100%, the “Compound left (%)” value (Time 13 hr) is reported as 96% and the “Compound left (%)” value (Time 24 hr) is reported as 94%. For the same compound, the “Acid stability in words” value (after 24 hours, dilute hydrochloric acid at pH 1, 25°C) was “remained intact”.

From patent EP1235833B1 (GLAXO GROUP LIMITED, priority 1999, dated 2001)
